Columns and labels:
[1] = system: NCI-H1975; assay: Antiproliferative activity against human NCI-H1975 cells assessed as reduction in cell viability incubated for 72 hrs by MTT assay; type: functional, cell-based; conditions: NCI-H1975, 72 h
[2] = system: A-431; assay: cells; type: functional, cell-based; conditions: Homo sapiens, A-431, 72 h
Description: Antiproliferative activity against human A-431 cells assessed as reduction in cell viability incubated for 72 hrs by MTT assay

[3] = system: A549; assay: cells; type: functional, cell-based; conditions: Homo sapiens, A549, 72 h;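 note: antiproliferative effect read out as loss of cell viability by MTT assay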
[4] = biological target: Epidermal growth factor receptor (Homo sapiens, UniProt P00533)
Sequence of Epidermal growth factor receptor (Homo sapiens, UniProt P00533) (P00533 whole entry): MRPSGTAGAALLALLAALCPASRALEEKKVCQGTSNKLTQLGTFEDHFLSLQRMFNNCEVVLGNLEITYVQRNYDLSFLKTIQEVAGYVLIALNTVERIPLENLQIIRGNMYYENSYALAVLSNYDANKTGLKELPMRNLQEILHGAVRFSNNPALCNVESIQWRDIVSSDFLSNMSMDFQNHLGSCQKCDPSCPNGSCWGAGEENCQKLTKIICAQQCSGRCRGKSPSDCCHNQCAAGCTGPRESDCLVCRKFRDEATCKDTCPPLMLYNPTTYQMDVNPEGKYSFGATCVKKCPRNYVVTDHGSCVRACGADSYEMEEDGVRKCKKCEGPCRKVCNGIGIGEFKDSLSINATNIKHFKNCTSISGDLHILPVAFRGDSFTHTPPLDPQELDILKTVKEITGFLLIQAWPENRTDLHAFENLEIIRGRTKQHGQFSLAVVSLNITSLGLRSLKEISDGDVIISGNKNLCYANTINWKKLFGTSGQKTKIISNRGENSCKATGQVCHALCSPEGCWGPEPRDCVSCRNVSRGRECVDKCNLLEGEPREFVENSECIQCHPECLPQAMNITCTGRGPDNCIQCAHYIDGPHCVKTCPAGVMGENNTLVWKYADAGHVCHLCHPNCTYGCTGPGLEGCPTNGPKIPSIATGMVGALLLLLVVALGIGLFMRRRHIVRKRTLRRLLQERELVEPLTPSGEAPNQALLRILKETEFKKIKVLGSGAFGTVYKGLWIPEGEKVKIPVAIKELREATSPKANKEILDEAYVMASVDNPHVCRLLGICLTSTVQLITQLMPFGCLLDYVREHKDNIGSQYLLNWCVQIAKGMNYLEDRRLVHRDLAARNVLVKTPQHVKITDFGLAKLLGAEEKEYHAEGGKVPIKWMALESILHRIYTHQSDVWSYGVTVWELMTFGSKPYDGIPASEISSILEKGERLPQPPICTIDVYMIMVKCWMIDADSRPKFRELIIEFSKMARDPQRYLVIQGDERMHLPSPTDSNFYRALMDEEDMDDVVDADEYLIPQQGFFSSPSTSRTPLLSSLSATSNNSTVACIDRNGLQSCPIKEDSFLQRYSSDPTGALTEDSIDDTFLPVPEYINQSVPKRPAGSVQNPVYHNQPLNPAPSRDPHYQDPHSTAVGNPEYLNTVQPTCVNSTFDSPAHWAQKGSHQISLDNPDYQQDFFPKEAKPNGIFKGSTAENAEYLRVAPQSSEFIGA
Description: Inhibition of recombinant human N-terminal GST-tagged EGFR (669 to 1210 residues) expressed in baculovirus expression system using peptide as substrate incubated for 2 hrs followed by substrate addition and measured after 30 mins by TR-FRET assay

[5] = biological target: Epidermal growth factor receptor (Homo sapiens, UniProt P00533, T790M)
Sequence of Epidermal growth factor receptor (Homo sapiens, UniProt P00533, T790M) (P00533 25-1210 T790M limits assumed): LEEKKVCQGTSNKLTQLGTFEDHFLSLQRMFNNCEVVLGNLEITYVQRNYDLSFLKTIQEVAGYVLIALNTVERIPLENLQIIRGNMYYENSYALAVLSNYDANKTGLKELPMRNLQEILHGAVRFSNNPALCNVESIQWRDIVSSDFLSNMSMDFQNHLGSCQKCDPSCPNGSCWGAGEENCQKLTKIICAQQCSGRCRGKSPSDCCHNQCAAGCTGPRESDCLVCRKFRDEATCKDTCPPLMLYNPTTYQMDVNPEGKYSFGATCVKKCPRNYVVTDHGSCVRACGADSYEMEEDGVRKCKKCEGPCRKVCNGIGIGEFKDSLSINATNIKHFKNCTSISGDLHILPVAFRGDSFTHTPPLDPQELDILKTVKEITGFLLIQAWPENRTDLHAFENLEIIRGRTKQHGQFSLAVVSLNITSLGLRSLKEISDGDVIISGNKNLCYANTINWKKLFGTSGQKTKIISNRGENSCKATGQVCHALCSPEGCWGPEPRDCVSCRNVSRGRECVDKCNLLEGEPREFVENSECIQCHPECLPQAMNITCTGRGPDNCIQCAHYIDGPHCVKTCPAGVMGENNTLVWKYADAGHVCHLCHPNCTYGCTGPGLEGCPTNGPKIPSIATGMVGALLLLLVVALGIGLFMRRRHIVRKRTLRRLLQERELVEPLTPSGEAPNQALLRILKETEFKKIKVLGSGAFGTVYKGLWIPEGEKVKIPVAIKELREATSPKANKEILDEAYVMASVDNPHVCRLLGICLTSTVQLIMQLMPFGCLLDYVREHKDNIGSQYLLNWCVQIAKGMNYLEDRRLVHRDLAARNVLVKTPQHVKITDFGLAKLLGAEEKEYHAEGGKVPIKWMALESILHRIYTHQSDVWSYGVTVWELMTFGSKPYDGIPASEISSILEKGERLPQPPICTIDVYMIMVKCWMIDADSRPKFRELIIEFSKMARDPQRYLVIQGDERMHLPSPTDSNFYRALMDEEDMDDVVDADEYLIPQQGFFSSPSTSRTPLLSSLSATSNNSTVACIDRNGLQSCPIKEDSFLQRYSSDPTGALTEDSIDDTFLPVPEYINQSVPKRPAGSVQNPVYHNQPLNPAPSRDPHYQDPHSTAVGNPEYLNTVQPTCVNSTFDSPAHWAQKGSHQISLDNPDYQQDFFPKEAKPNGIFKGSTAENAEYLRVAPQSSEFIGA

[6] = biological target: Carbonic anhydrase 2 (Homo sapiens, UniProt P00918); assay: Inhibition of human carbonic anhydrase 2 using p-nitrophenyl acetate as substrate by UV-VIS spectrophotometric analysis
[7] = biological target: Carbonic anhydrase 9 (Homo sapiens, UniProt Q16790)
Description: Inhibition of human carbonic anhydrase 9 using p-nitrophenyl acetate as substrate by UV-VIS spectrophotometric analysis

Row | IC50 [1] | IC50 [2] | IC50 [3] | SMILES | IC50 [4] | IC50 [5] | IC50 [6] | IC50 [7]
1 | 20 µM | 23.4 µM | > 40 µM | COc1cc2ncnc(Nc3cc(F)c(F)c(F)c3)c2cc1OCCCCC(=O)Nc1ccc(S(N)(=O)=O)cc1 | – | – | – | –
2 | 8.77 µM | 22.4 µM | > 40 µM | COc1cc2ncnc(Nc3ccc(OC(F)(F)F)cc3)c2cc1OCCCCC(=O)Nc1ccc(S(N)(=O)=O)cc1 | – | – | – | –
3 | 11.4 µM | 9.75 µM | 14.9 µM | COc1cc2ncnc(Nc3cccc(Br)c3)c2cc1OCCCCC(=O)Nc1ccc(S(N)(=O)=O)cc1 | – | – | – | –
4 | 31.8 µM | 7.12 µM | > 40 µM | COc1cc2ncnc(Nc3ccc(Cl)cc3)c2cc1OCCCCC(=O)Nc1ccc(S(N)(=O)=O)cc1 | – | – | – | –
5 | 11 µM | 20.7 µM | 25 µM | NS(=O)(=O)c1ccc(NC(=S)Nc2ccc3ncnc(Nc4cccc(Br)c4)c3c2)cc1 | – | – | – | –
6 | > 40 µM | 29.9 µM | > 40 µM | COc1cc2ncnc(Nc3cccc(F)c3)c2cc1OCCCCC(=O)Nc1ccc(S(N)(=O)=O)cc1 | – | – | – | –
7 | 32.1 µM | 7.46 µM | 16 µM | COc1cc2ncnc(Nc3cccc(C)c3)c2cc1OCCCCC(=O)Nc1ccc(S(N)(=O)=O)cc1 | – | – | – | –
8 | 11 µM | 14.8 µM | 2.77 µM | NS(=O)(=O)c1ccc(CCNC(=S)Nc2ccc3ncnc(Nc4cccc(Cl)c4)c3c2)cc1 | – | – | – | –
9 | 9.43 µM | 21.1 µM | 5.4 µM | NS(=O)(=O)c1ccc(CCNC(=S)Nc2ccc3ncnc(Nc4ccc(F)c(Br)c4)c3c2)cc1 | – | – | – | –
10 | 8.03 µM | 24.2 µM | 24.1 µM | COc1ccccc1Nc1ncnc2cc(OC)c(OCCCCC(=O)Nc3ccc(S(N)(=O)=O)cc3)cc12 | – | – | – | –
11 | 9.36 µM | 39.6 µM | 16.6 µM | CCc1ccc(Nc2ncnc3ccc(NC(=S)NCCc4ccc(S(N)(=O)=O)cc4)cc23)cc1 | – | – | – | –
12 | 11.8 µM | 18.2 µM | 4.5 µM | NS(=O)(=O)c1ccc(NC(=S)Nc2ccc3ncnc(Nc4ccc(Cl)c(C(F)(F)F)c4)c3c2)cc1 | – | – | – | –
13 | 19.2 µM | 35.5 µM | > 40 µM | COc1cc2ncnc(Nc3ccc(C)cc3)c2cc1OCCCCC(=O)Nc1ccc(S(N)(=O)=O)cc1 | – | – | – | –
14 | 39.4 µM | 40 µM | 2.84 µM | Cc1ccc(Nc2ncnc3ccc(NC(=S)Nc4ccc(S(N)(=O)=O)cc4)cc23)cc1 | – | – | – | –
15 | 15.8 µM | 37.6 µM | > 40 µM | NS(=O)(=O)c1ccc(NC(=S)Nc2ccc3ncnc(Nc4ccc(F)c(Cl)c4)c3c2)cc1 | – | – | – | –
16 | > 40 µM | 18.6 µM | > 40 µM | COc1cc2ncnc(Nc3ccc(F)cc3)c2cc1OCCCCC(=O)Nc1ccc(S(N)(=O)=O)cc1 | – | – | – | –
17 | 9.23 µM | 35.4 µM | > 40 µM | COc1ccc(Nc2ncnc3cc(OC)c(OCCCCC(=O)Nc4ccc(S(N)(=O)=O)cc4)cc23)cc1OC | – | – | – | –
18 | 11.4 µM | 16.7 µM | 4.18 µM | NS(=O)(=O)c1ccc(CCNC(=S)Nc2ccc3ncnc(Nc4ccc(F)c(Cl)c4)c3c2)cc1 | – | – | – | –
19 | 39.8 µM | 15 µM | > 40 µM | NS(=O)(=O)c1ccc(NC(=S)Nc2ccc3ncnc(Nc4cccc(Cl)c4)c3c2)cc1 | – | – | – | –
20 | 10.2 µM | 13.1 µM | 14.7 µM | Cc1ccc(Nc2ncnc3ccc(NC(=S)NCCc4ccc(S(N)(=O)=O)cc4)cc23)cc1 | – | – | – | –
21 | 13 µM | 26.7 µM | 32.4 µM | NS(=O)(=O)c1ccc(CCNC(=S)Nc2ccc3ncnc(Nc4ccc(C(F)(F)F)cc4)c3c2)cc1 | – | – | – | –
22 | 12.7 µM | 12.5 µM | 3.87 µM | C#Cc1cccc(Nc2ncnc3ccc(NC(=S)NCCc4ccc(S(N)(=O)=O)cc4)cc23)c1 | – | – | – | –

Row | IC50 [1] | IC50 [2] | IC50 [3] | SMILES | IC50 [4] | IC50 [5] | IC50 [6] | IC50 [7]
23 | 17.1 µM | 18 µM | > 40 µM | NS(=O)(=O)c1ccc(NC(=S)Nc2ccc3ncnc(Nc4ccc(C(F)(F)F)cc4)c3c2)cc1 | – | – | – | –
24 | 31.6 µM | 8.02 µM | 16 µM | COc1cc2ncnc(Nc3ccc(F)c(Br)c3)c2cc1OCCCCC(=O)Nc1ccc(S(N)(=O)=O)cc1 | – | – | – | –
25 | 25.1 µM | 13.1 µM | > 40 µM | NS(=O)(=O)c1ccc(NC(=S)Nc2ccc3ncnc(Nc4cccc(Cl)c4F)c3c2)cc1 | – | – | – | –
26 | 23.3 µM | 6.57 µM | > 40 µM | COc1cc2ncnc(Nc3ccc(Br)cc3)c2cc1OCCCCC(=O)Nc1ccc(S(N)(=O)=O)cc1 | – | – | – | –
27 | 33.2 µM | 30.4 µM | 11.2 µM | COc1cc2ncnc(Nc3cccc(Cl)c3)c2cc1OCCCCC(=O)Nc1ccc(S(N)(=O)=O)cc1 | – | – | – | –
28 | 10.3 µM | 7.22 µM | 12.1 µM | CCc1ccc(Nc2ncnc3cc(OC)c(OCCCCC(=O)Nc4ccc(S(N)(=O)=O)cc4)cc23)cc1 | – | – | – | –
29 | 9.66 µM | 30.1 µM | 25.9 µM | NS(=O)(=O)c1ccc(NC(=S)Nc2ccc3ncnc(Nc4cccc(F)c4)c3c2)cc1 | – | – | – | –
30 | 10.3 µM | 29.5 µM | > 40 µM | NS(=O)(=O)c1ccc(NC(=S)Nc2ccc3ncnc(Nc4ccc(OCc5cccc(F)c5)c(Cl)c4)c3c2)cc1 | – | – | – | –
31 | 13 µM | 4.21 µM | 4.53 µM | NS(=O)(=O)c1ccc(CCNC(=S)Nc2ccc3ncnc(Nc4cccc(Cl)c4F)c3c2)cc1 | – | – | – | –
32 | 35.7 µM | 9.94 µM | 5.51 µM | NS(=O)(=O)c1ccc(CCNC(=S)Nc2ccc3ncnc(Nc4cccc(F)c4)c3c2)cc1 | – | – | – | –
33 | 20.8 µM | 16 µM | 7.05 µM | Cc1cccc(Nc2ncnc3ccc(NC(=S)NCCc4ccc(S(N)(=O)=O)cc4)cc23)c1 | – | – | – | –
34 | 38.7 µM | 38.4 µM | 24.6 µM | CCc1ccc(Nc2ncnc3ccc(NC(=S)Nc4ccc(S(N)(=O)=O)cc4)cc23)cc1 | – | – | – | –
35 | 9.98 µM | 18.2 µM | > 40 µM | NS(=O)(=O)c1ccc(NC(=S)Nc2ccc3ncnc(Nc4ccc(F)c(Br)c4)c3c2)cc1 | – | – | – | –
36 | 30.2 µM | 14.7 µM | > 40 µM | COc1ccc(Nc2ncnc3cc(OC)c(OCCCCC(=O)Nc4ccc(S(N)(=O)=O)cc4)cc23)cc1 | – | – | – | –
37 | 35.4 µM | 23.8 µM | > 40 µM | Cc1cccc(Nc2ncnc3ccc(NC(=S)Nc4ccc(S(N)(=O)=O)cc4)cc23)c1 | – | – | – | –
38 | 14.1 µM | 25.2 µM | > 40 µM | COc1cc2ncnc(Nc3ccccc3)c2cc1OCCCCC(=O)Nc1ccc(S(N)(=O)=O)cc1 | – | – | – | –
39 | 13.4 µM | 15.3 µM | > 40 µM | C#Cc1cccc(Nc2ncnc3ccc(NC(=S)Nc4ccc(S(N)(=O)=O)cc4)cc23)c1 | – | – | – | –
40 | 12 µM | 16.9 µM | 14.8 µM | COc1cc2ncnc(Nc3ccc(C(F)(F)F)cc3)c2cc1OCCCCC(=O)Nc1ccc(S(N)(=O)=O)cc1 | – | – | – | –
41 | 39.5 µM | 21.2 µM | 30.4 µM | NS(=O)(=O)c1ccc(CCNC(=S)Nc2ccc3ncnc(Nc4ccc(Cl)c(C(F)(F)F)c4)c3c2)cc1 | – | – | – | –
42 | 13.1 µM | 11.8 µM | 16.4 µM | C#Cc1cccc(Nc2ncnc3cc(OCCOC)c(OCCOC)cc23)c1 [ERLOTINIB] | – | – | – | –
43 | 10.8 µM | 17.3 µM | 9.36 µM | NS(=O)(=O)c1ccc(CCNC(=S)Nc2ccc3ncnc(Nc4cccc(Br)c4)c3c2)cc1 | – | – | – | –

Row | SMILES | IC50 [1] | IC50 [2] | IC50 [3] | IC50 [4] | IC50 [5] | IC50 [6] | IC50 [7]
44 | C#Cc1cccc(Nc2ncnc3cc(OC)c(OCCCCC(=O)Nc4ccc(S(N)(=O)=O)cc4)cc23)c1 | 18.8 µM | 17.7 µM | 7.72 µM | 0.0492 µM | 0.0485 µM | – | –
45 | COc1cc2ncnc(Nc3ccc(F)c(Cl)c3)c2cc1OCCCCC(=O)Nc1ccc(S(N)(=O)=O)cc1 | 35.6 µM | 5.02 µM | 15.5 µM | 0.0183 µM | 0.0619 µM | – | –
46 | NS(=O)(=O)c1ccc(NC(=S)Nc2ccc3ncnc(Nc4cccc(C(F)(F)F)c4)c3c2)cc1 | 7.59 µM | 21.7 µM | 10.1 µM | 0.0512 µM | 0.135 µM | 0.526 µM | 0.578 µM
47 | COc1cc2ncnc(Nc3cccc(Cl)c3F)c2cc1OCCCCC(=O)Nc1ccc(S(N)(=O)=O)cc1 | 6.93 µM | 5.56 µM | 10.5 µM | 0.0348 µM | 0.018 µM | – | –
48 | NS(=O)(=O)c1ccc(CCNC(=S)Nc2ccc3ncnc(Nc4ccc(OCc5cccc(F)c5)c(Cl)c4)c3c2)cc1 | 5.16 µM | 5.77 µM | 6.63 µM | 0.0284 µM | 0.0667 µM | – | –
49 | COc1cc2ncnc(Nc3ccc(Cl)c(C(F)(F)F)c3)c2cc1OCCCCC(=O)Nc1ccc(S(N)(=O)=O)cc1 | 3.22 µM | 3.91 µM | 9.27 µM | 0.0137 µM | 0.0375 µM | 0.356 µM | 0.224 µM
50 | NS(=O)(=O)c1ccc(CCNC(=S)Nc2ccc3ncnc(Nc4cccc(C(F)(F)F)c4)c3c2)cc1 | 4.25 µM | 16.8 µM | 9.05 µM | 0.0426 µM | 0.0934 µM | 0.241 µM | 0.313 µM
51 | COc1cc2ncnc(Nc3ccc(OCc4cccc(F)c4)c(Cl)c3)c2cc1OCCCCC(=O)Nc1ccc(S(N)(=O)=O)cc1 | 5.67 µM | 7.79 µM | 7.86 µM | 0.0165 µM | 0.0228 µM | – | –

Source: ChEMBL document CHEMBL4813962, “Design, synthesis and biological evaluation of sulfamoylphenyl-quinazoline derivatives as potential EGFR/CAIX dual inhibitors” (Eur J Med Chem, 2021)
